Patent US8980646B2, “Proteolytic and covalent antibodies” (priority 2003, dated 2015)

What was measured:
[1] = tested on: peptide-AMC substrates; test: Peptide-AMC cleavage by IgM, IgG and Fab (fluorimetry); format: biochemical; conditions: 675 nM pepsin; other conditions as FIG. 31B
[2] = tested on: human IgG HS-2; test: Irreversible inhibition of HS-2 IgG-catalyzed [Tyr10-125I]-VIP cleavage; format: biochemical; conditions: for IC50: IgG 2 μM preincubated 16 h with CRA, unreacted CRA removed
Procedure: FIG. 23. Inhibition of polyclonal antibody catalyzed VIP cleavage by VIP-CRA 3 and hapten CRA 1. Panel A: Reversed-phase HPLC profiles showing cleavage of [Tyr^10-^125I]-VIP at multiple sites by human IgG HS-2. [Tyr^10-^1251I]-VIP incubated in the presence (●) or absence (◯) of HS-2 IgG (2 μM) for 16 h and subjected to HPLC [Nova-pak C, 3.9×150 mm; 0.1% TFA in water: 0.1% TFA in 80% acetonitrile 95:5 for 10 min, 95:5 to 30:70 in 55 min, 30:70 to 0:100 in 5 min, 0:100 for 5 min (0.5 ml/min)]. Shown are values of ^125I radioactivity recovered in the HPLC fractions (0.5 ml). Panel B: Irreversible inhibition of HS-2 IgG-catalyzed [Tyr^10-^125I]-VIP cleavage by VIP-CRA 3 and hapten CRA 1. IgG (2 μM) was preincubated for 16 h in the absence or presence of increasing concentrations of VIP-CRA 3 (●) or hapten CRA 1 (◯). Following removal of unreacted CRA by chromatography on immobilized Protein G, the residual catalytic activity of the IgG was measured using [Tyr^10-^125I]-VIP as substrate. Data are means±SD. Control HS-2 IgG incubated in the absence of CRAs cleaved 2791 c.p.m. [Tyr^10-^125I]-VIP.
Preparation and assay of cleavage of [Tyr^10-^125I]-VIP were described previously (24). To determine if the CRAs inhibit Abs irreversibly, IgG (2 μM) was incubated (37° C.) with 1 or 3 for 16 h in 50 mM Tris.HCl-0.1M Gly (pH 8.0) containing 2.5% DMSO and 0.025% Tween 20. Unreacted 1 or 3 was then removed by chromatography of the reaction mixtures (0.2 ml) on protein G columns as in ref35 (50 μl settled gel; washed with 0.8 ml 50 mM Tris.HCl, pH 7.4; eluted with 0.2 ml 0.1 M Gly.HCl, pH 2.7; neutralized with 1M Tris.HCl, pH 9). Fifty μl aliquots of the recovered IgG (and IgG-CRA complexes) were incubated with [Tyr^10-^125I]-VIP (86,000 c.p.m.) for 18 h and peptide cleavage was determined by measuring the radioactivity soluble in trichloroacetic acid. Control IgG samples were incubated without CRA, chromatographed and analyzed for VIP cleaving activity in the same way.

[3] = tested on: anti-VIP IgG c23.5 light chain; format: binding, mouse
[4] = tested on: IgG; format: biochemical, human
[5] = tested on: polyclonal murine IgM; format: biochemical, mouse
[6] = tested on: murine splenocytes; test: Hapten CRA I staining of splenocytes / B cells (microscopy, flow cytometry, extract affinity chromatography)
[7] = molecular target: exEGFR protein CRA IV (human) (UniProt P00533)
[8] = molecular target: HIV-1 gp120 (MN strain, recombinant, baculovirus expression system) (HIV-1, MN strain) (UniProt P05877); test: ELISA, serum 1:100, immobilized gp120
[9] = molecular target: gp120-CRA III (HIV-1, MN strain) (UniProt P05877); test: ELISA, serum 1:100, immobilized III
[10] = Irreversible hapten CRA I binding by IgG, scFv and trypsin (SDS-electrophoresis of biotin-containing adducts); conditions: CRA I 100 μM; linear regression of FIG. 8B data

pepsin: purified porcine pepsin used as control
cleavage of Glu-Ala-Arg-AMC by pepsin [1]: did not cleave

VIP-CRA 3: N-terminally biotinylated VIP with amidino phosphonate diester on the Lys20 side chain; called VIP-CRA 4 in Examples VI, XI
VIP-CRA concentration giving near-complete inhibition of catalysis ([2]; IgG 2 μM preincubated 16 h): > 20 µM
IC50 [2]: 7 µM

vasoactive intestinal peptide [VIP]
inhibition of formation of VIP-CRA 3 adducts with anti-VIP light chain [3]: 41.0±7%

N=C(N)c1ccc(C(NC(=O)CCCCCNC(=O)CCCC[C@@H]2SC[C@@H]3NC(=O)N[C@@H]32)P(=O)(Oc2ccccc2)Oc2ccccc2)cc1 (stereo partly drawn) [hapten CRA I, Diphenyl N-(6-biotinamidohexanoyl)amino(4-amidinophenyl)methanephosphonate]
effect on IgG-catalyzed peptide-MCA cleavage [4]: inhibited
IC50 [2]: 36 µM
inhibition of murine IgM activity [5]: 9-100%
IC50 ([5]; read-out: IC50, murine IgM Glu-Ala-Arg-AMC cleavage): 42 µM
cell viability following incubation (trypan blue exclusion) [6]: No loss of viability
CRA I-stained cells positive for B cell marker CD19 ([6]; 3 repeat experiments): 82±4%
total CRA content of B cells adsorbed by immobilized Abs to μ and κ/λ chains ([6]; B cell extract, densitometry): Eighty
cells displaying intense staining ([6]; N 3 experiments, counting 400 lymphocytes, UV microscope): 11±2
minority subpopulation with very high fluorescence intensity ([6]; flow cytometry): 14%
CRA I-treated cells with fluorescence intensity exceeding compound II-treated cells ([6]; flow cytometry, 100 μM, 4 hours): Seventy nine

nonimmune mouse IgG / nonimmune mouse serum (antibody)
kobs (pseudo-first order rate constant for accumulation of adducts) [7]: < 0.0072 h⁻¹
A490 [8]: 0.001 A490
A490 [9]: -0.002 A490

B1: trypsin: porcine trypsin, type IX, Sigma (protein, UniProt P00761 9-231, looked up)
Trypsin: IVGGYTCAANSIPYQVSLNSGSHFCGGSLINSQWVVSAAHCYKSRIQVRLGEHNIDVLEGNEQFINAAKIITHPNFNGNTLDNDIMLIKLSSPATLNSRVATVSLPRSCAAAGTECLISGWGNTKSSGSSYPSLLQCLKAPVLSDSSCKSSYPGQITGNMICVGFLEGGKDSCQGDSGGPVVCNGQLQGIVSWGYGCAQKNKPGVYTKVCNYVNWIQQTIAAN
velocity of covalent I adduct formation [10]: 11.9±0.6 AAU/min
